# Measured values from US12338199B2, “Bis-octahydrophenanthrene carboxamides and protein conjugates thereof” (REGENERON PHARMACEUTICALS, INC., priority 2017, dated 2025).
# Where a name gives a salt, the structure may show the parent alone.
# Key:
# THP1/LXR-Luc cells [1] = assay: THP1/LXR-Luc luciferase reporter bioassay; format: cell-based; settings: Homo sapiens, THP-1, 48 hours; for EC50: read-out: Activation of THP1/LXR-Luc cells: EC50; for Emax: relative to maximum activation of free payload 9d, read-out: Activation of THP1/LXR-Luc cells: Fold of activation
# Excerpt: The fold activation in the cell-based assays (as described in Example 68, below) was defined based on the maximum activation of the free payload 9d.
# (§1) A bioassay was developed to assess the activity of LXR agonists after internalization of an agonist or of a ncADC into cells and binding to LXR, a nuclear receptor, using a commercially available LXR reporter (referred to as LXR-Luc) that contains the firefly luciferase gene under control by minimal CMV promoter and tandem repeats of the LXR transcriptional response element. For this assay, a THP1 cell line, which is a human monocytic leukaemia line, was engineered to express full length human Her2 (expressing amino acids M1 through V1255 of accession number NP_004439.2). The subsequent stable cell line was further transduced with a Cignal LXR Luc Reporter (Qiagen, Cat # CLS-7041L). The resulting stable cell line is referred to herein as THP1/Her2/LXR-Luc. The Her2 cell surface expression on THP1/Her2/LXR-Luc cell line was confirmed by FACS (data not shown).
# Additionally, a THP1 cell line was transduced with a Cignal LXR Luc Reporter (Qiagen, Cat # CLS-7041L) without the addition of Her2. The resulting stable cell line is referred to herein as THP1/LXR-Luc. All of the antibodies used in the subsequent bioassays were assessed for their ability to internalize and release a payload on the bioassay cell line used.
# (§2) This example assessed the ability of the LXR agonists provided herein, reference compounds, and anti-Her2 antibody-LXR ncADC to activate LXR. The samples were tested in the THP1/LXR-Luc/Her2 bioassay. For the assay, either THP1/LXR-Luc cells or THP1/LXR-Luc/Her2 cells were seeded onto white 96 well plates at 30,000 cells/well in media containing RPMI supplemented with 10% FBS and pencillin/streptomycin (complete media). Subsequently 3-fold serial dilutions of antibody drug conjugates, unconjugated antibodies, or free payloads were added to the cells at final concentration ranging from 100 nM to 0.01 nM. After 48-hour or 72-hour incubation, luciferase activity was determined after the addition of One-Glo™ reagent (Promega, Cat # E6130) to each well of cells. Relative light units (RLUs) were measured on a Victor luminometer (PerkinElmer) and the EC5o values were determined using a four-parameter logistic equation over a 10-point dose response curve (GraphPad Prism) (FIG. 15). The fold activation is calculated based on the maximum activation of the free payload 9d.
# THP1/LXR-Luc/Her2 cells = assay: THP1/LXR-Luc/Her2 luciferase reporter bioassay; format: cell-based; settings: Homo sapiens
# Excerpt: as §1, §2
# THP1/LXR-Luc cells [2] = assay: LXR-luciferase reporter bioassay in PMA-differentiated THP1/LXR-Luc cells; format: cell-based, human; settings: for EC50: Homo sapiens, THP-1, 48 h, read-out: EC50; for S/N (signal to noise, ratio of RLU of standard one over RLU of standard eight): luciferase activity
# Excerpt: To test the efficacy of anti-MSR1 antibody-LXR conjugates in vitro, a cell-based LXR responsive luciferase reporter assay was developed. To generate the assay cell line, a LXR regulated luciferase reporter gene [Cignal Lenti LXR Reporter (luc) kit (Qiagen, Cat # CLS-001L)] was transduced into THP1 cells, and cells were selected for two weeks in puromycin. The lentivirus expresses the firefly luciferase gene under the control of a minimal CMV promoter and tandem repeats of the LXR transcriptional response element. The resulting cell line is referred to as THP1/LXR-Luc cells.
# THP1/LXR-Luc cells were seeded onto 96 well plates at 40,000 cells/well in media containing RPMI supplemented with 10% FBS and pencillin/streptomycin and subsequently differentiated with 200 nM Phorbol Myristate Acetate (PMA) for 3 days. After the 3-day differentiation period, three-fold serial dilutions of antibody drug conjugates, unconjugated antibodies, or free payloads in fresh media were added to the cells at final concentration ranging from 100 nM to 0.01 nM. Media alone served as a blank control. Forty-eight hours later, luciferase activity was determined after the addition of One-Glo™ reagent (Promega, Cat # E6130) to each well. Relative light units (RLUs) were measured on a Victor luminometer (PerkinElmer) and EC50 values were determined using a four-parameter logistic equation over a 10-point dose response curve (GraphPad Prism). The signal to noise (S/N) was determined by calculating the ratio of RLU of standard one over RLU of standard eight for each of the unconjugated anti-MSR1 antibodies or free payloads. “LP #” represents a linker-payload for which the corresponding structures are provided elsewhere herein, and “P #” represents a payload for which the corresponding structures are provided elsewhere herein.
# LXR beta = molecular target: T1, LXR beta (Homo sapiens, UniProt P55055); assay: LanthaScreen TR-FRET LXR beta Coactivator Assay (cell-free binding); settings: TR-FRET, 12-point curve; read-out: Cell free binding LXRβ IC50
# T1 construct: LXR alpha or beta LBD-GST; purchased ThermoFisher PV4658
# T1 sequence (P55055 222-460 limits assumed): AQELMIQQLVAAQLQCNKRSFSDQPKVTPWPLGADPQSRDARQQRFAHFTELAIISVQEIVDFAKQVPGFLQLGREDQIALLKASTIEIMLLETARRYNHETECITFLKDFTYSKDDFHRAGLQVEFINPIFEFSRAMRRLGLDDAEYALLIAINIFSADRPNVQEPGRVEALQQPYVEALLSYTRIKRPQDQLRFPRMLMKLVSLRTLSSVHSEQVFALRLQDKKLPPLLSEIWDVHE
# Description: (§3) To evaluate the ability of novel LXR agonists to bind to the LXR alpha and beta receptor, a cell-free binding assay was performed using a LanthaScreen TR-FRET LXR alpha Coactivator Assay Kit (ThermoFisher, Cat # PV4655) and LXR beta Coactivator Assay Kit (ThermoFisher, Cat # PV4658). The assay was performed according to the manufacturer's instructions. Briefly, a 3-fold serial dilution of LXR agonists were prepared in 100% DMSO starting at 100 μM (100× of final). Serial dilutions were further diluted 50-fold in nuclear receptor buffer F with 5 mM DTT, and transferred to a 384-well assay plate. Next, Fluorescein-D22, LXR alpha or beta LBD-GST, and Tb anti-GST antibody was sequentially added to 384-well assay plate. The plate was then incubated at rt for 2.5 hours while being protected from light. […] The IC50 values were determined using a four-parameter logistic equation over a 12-point response curve (GraphPad Prism).
# LXR alpha = molecular target: T2, LXR alpha (Homo sapiens, UniProt Q13133); assay: LanthaScreen TR-FRET LXR alpha Coactivator Assay (cell-free binding); settings: TR-FRET, 12-point curve; read-out: Cell free binding LXRα IC50
# T2 construct: LXR alpha or beta LBD-GST; purchased ThermoFisher PV4655
# T2 sequence (Q13133 209-447 limits assumed): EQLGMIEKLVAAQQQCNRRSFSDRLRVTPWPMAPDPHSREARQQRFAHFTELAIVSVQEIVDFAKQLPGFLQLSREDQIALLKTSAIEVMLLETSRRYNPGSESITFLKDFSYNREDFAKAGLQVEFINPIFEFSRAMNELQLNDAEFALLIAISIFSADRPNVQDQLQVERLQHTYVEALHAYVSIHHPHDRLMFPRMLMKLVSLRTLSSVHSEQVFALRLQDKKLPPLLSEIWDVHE
# Description: as §3
# [3] = 48-hour time point, stimulation of THP1/Luc cells
# [4] = PMA-differentiated THP1/LXR-Luc cells, 48 hours, luciferase activity (One-Glo), 10-point dose response 100 nM to 0.01 nM
# [5] = PMA-differentiated THP1/LXR-Luc cells, 48 hours
SMILES,EC50 (THP1/LXR-Luc cells [1]) [nM],Emax (THP1/LXR-Luc cells [1]) [%],"EC50 (THP1/LXR-Luc/Her2 cells; THP-1, 48 h, 48-hour time point) [nM]","EC50 (THP1/LXR-Luc/Her2 cells; THP-1, 48 h, 48 hours, unit inferred, values correspond to M) [nM]","EC50 (THP1/LXR-Luc/Her2 cells; THP-1, 72 h, 72-hour time point) [nM]","EC50 (THP1/LXR-Luc/Her2 cells; THP-1, 72 h, 72 hours) [nM]",EC50 (THP1/LXR-Luc cells [2]; [3]) [nM],EC50 (THP1/LXR-Luc cells [2]; [4]) [nM],"S/N (signal to noise, ratio of RLU of standard one over RLU of standard eight) (THP1/LXR-Luc cells [2]; [5])",IC50 (LXR beta) [nM],IC50 (LXR alpha) [nM]
"C[C@]1(C(=O)NC(=O)[C@@]2(C)CCC[C@]3(C)c4cc(NC(=O)[C@@H](N)CO)ccc4CC[C@@H]23)CCC[C@]2(C)c3cc(O)ccc3CC[C@@H]12 [Compound 9j, (1S,4aS,10aR)-6-((S)-2-Amino-3-hydroxypropanamido)-N-((1S,4aS,10aR)-6-hydroxy-1,4a-dimethyl-1,2,3,4,4a,9,10,10a-octahydrophenanthrene-1-carbonyl)-1,4a-dimethyl-1,2,3,4,4a,9,10,10a-octahydrophenanthrene-1-carboxamide]",≤ 1,> 75,0.39,0.39,0.47,0.47,0.37 to 2.09,0.46,5.7,< 10,< 10
"C[C@]1(C(=O)NC(=O)[C@@]2(C)CCC[C@]3(C)c4cc(NC(=O)[C@@H](N)CCCCN)ccc4CC[C@@H]23)CCC[C@]2(C)c3cc(O)ccc3CC[C@@H]12 [Compound 9l, (1S,4aS,10aR)—N-[(1S,4aS,10aR)-6-Hydroxy-1,4a-dimethyl-1,2,3,4,4a,9,10,10a-octahydrophenanthrene-1-carbonyl]-6-[(2S)-2,6-diaminohexanamido]-1,4a-dimethyl-1,2,3,4,4a,9,10,10a-octahydrophenanthrene-1-carboxamide; Trifluoroacetic Acid Salt]",1 to 10,> 75,,,,,0.37 to 2.09,2.09,8.9,10 to 100,10 to 100
"C[C@]1(C(=O)NC(=O)[C@@]2(C)CCC[C@]3(C)c4cc(NC(=O)[C@@H](N)CCC(=O)O)ccc4CC[C@@H]23)CCC[C@]2(C)c3cc(O)ccc3CC[C@@H]12 [Compound 9o, (4S)-4-Amino-4-{[(4bS,8S,8aR)-8-{[(1S,4aS,10aR)-6-hydroxy-1,4a-dimethyl-1,2,3,4,4a,9,10,10a-octahydrophenanthrene-1-carbonyl]carbamoyl}-4b,8-dimethyl-4b,5,6,7,8,8a,9,10-octahydrophenanthren-3-yl]carbamoyl}butanoic acid; Trifluoroacetic Acid Salt]",≤ 1,> 75,,,,,0.37 to 2.09,0.37,8.3,< 10,10 to 100
"C[C@]1(C(=O)NC(=O)[C@@]2(C)CCC[C@]3(C)c4cc(NC(=O)CCCC(=O)O)ccc4CC[C@@H]23)CCC[C@]2(C)c3cc(O)ccc3CC[C@@H]12 [Compound 9q, 4-{[(4bS,8S,8aR)-8-{[(1S,4aS,10aR)-6-Hydroxy-1,4a-dimethyl-1,2,3,4,4a,9,10,10a-octahydrophenanthrene-1-carbonyl]carbamoyl}-4b,8-dimethyl-4b,5,6,7,8,8a,9,10-octahydrophenanthren-3-yl]carbamoyl}butanoic Acid]",10 to 100,> 75,,,,,,,,< 10,< 10
"C[C@]1(C(=O)NC(=O)[C@@]2(C)CCC[C@]3(C)c4cc(NC(=O)CNCC(=O)O)ccc4CC[C@@H]23)CCC[C@]2(C)c3cc(O)ccc3CC[C@@H]12 [Compound 9r, 2-[({[(4bS,8S,8aR)-8-{[(1S,4aS,10aR)-6-Hydroxy-1,4a-dimethyl-1,2,3,4,4a,9,10,10a-octahydrophenanthrene-1-carbonyl]carbamoyl}-4b,8-dimethyl-4b,5,6,7,8,8a,9,10-octahydrophenanthren-3-yl]carbamoyl}methyl)amino]acetic Acid; Trifluoroacetic Acid Salt]",10 to 100,> 75,,,,,,,,< 10,< 10
O=C(O)Cc1cccc(OCCCN(Cc2cccc(C(F)(F)F)c2Cl)CC(c2ccccc2)c2ccccc2)c1 [GW3965],> 100,> 75,,,,,,,,< 10,< 10
